In patent US8383130B2, “Partial peptide of lacritin” (Senju Pharmaceutical Co., Ltd., priority 2008, dated 2013):

Experiments:
Type in all cases: cell-based
[1] = test system: human corneal epithelial cells (HCE-T); experiment: Adhesion of human corneal epithelial cell to extracellular matrix (Experimental Example 2); conditions: polypeptide 10 μM in PBS, 50 μL per well, collagen type IV coated plate, 37° C. 25 min, MTT assay, no addition of polypeptide = 100%
Experimental: (§1) An extracellular matrix solution (10 μg/mL, collagen type IV: Becton, Dickinson and Company) was added to a 96 well plate (Iwaki Glass Company, Limited). The solution was incubated at 37° C. for 1 hr to coat the plate with the extracellular matrix. After the redundant extracellular matrix solution was removed, 0.1% BSA solution (Sigma-Aldrich Co.) was added to block the region not coated with the extracellular matrix. Successively, the BSA solution was removed and the plate was washed three times with PBS, and polypeptides 4, 6 and 7 synthesized in Example 2 and Comparative Example 1 were suspended in PBS to a final concentration of 10 μM, and the suspension was added by 50 μL per well. Furthermore, established human corneal epithelial cells (HCE-T: can be prepared by the method described in Invest Ophthalmol Vis Sci. 1995, 36, 614) were cultured overnight under serum-free conditions and added to the plate at 2×10^4 cells/100 μL DMEM/F12 medium/well. The plate was incubated at 37° C. for 25 min to allow adhesion of the cells to the well. The number of the adhered cells was counted by MTT assay (DOJINDO LABORATORIES).

[2] = test system: human corneal epithelial cells (HCE-T); experiment: Adhesion of human corneal epithelial cell to extracellular matrix (Experimental Example 1); conditions: polypeptide 100 μg/mL, 50 μL per well, collagen type IV coated plate, 37° C. 20 min, MTT assay, no addition of polypeptide = 100%
Experimental: as §1, with “washed twice” for “washed three times”, “polypeptides 1-5 (concentration 100 μg/mL)” for “polypeptides 4, 6 and 7”, “Example 1” for “Example 2”, “were” for “were suspended in PBS to a final concentration of 10 μM, and the suspension was”, “for 20” for “for 25”, “the plate.” for “the well.”

[3] = test system: monkey lacrimal gland acinar cells; experiment: Secretion of tear protein (lactoferrin) from monkey lacrimal gland acinar cells; conditions: 1 μM polypeptide; for lactoferrin secretion amount (ng/10^5 cells): 37° C. 10 min, westernblot, human lactoferrin as standard
Experimental: Monkey lacrimal gland was chopped in a DMEM/F12 medium (Invitrogen Corporation) and treated with HBSS (Invitrogen Corporation) containing 0.76 mg/mL EDTA (Sigma-Aldrich Co.) and DMEM/F12 medium containing 200 U/mL collagenase A (Roche), 698 U/mL Hyarulonidase (Worthington Biochemical Corporation) and 10 U/mL DNase (Roche Diagnostics K.K.), and the cells were isolated. 1×10^6 cells were sown on a 6 well plate (ASAHI GLASS CO., LTD.) coated with 0.01 mg/cm^2 Collagen I (Becton, Dickinson and Company), and cultured in a CO2 incubator at 37° C. overnight. The next day, the medium was changed to a supplement-free DMEM/F12 medium and the cells were pre-incubated at 37° C. for 30 min, and then incubated in a DMEM/F12 medium containing 1 μM polypeptide 1 or 4 at 37° C. for 10 min. Lactoferrin as a tear protein secreted in the medium was detected by westernblot, and quantified using human lactoferrin (Sigma-Aldrich Co.) as the standard. The collected medium was purified by 2D clean up kit (Bio-Rad Laboratories, Inc.), dissolved in NuPAGE LDS sample buffer (Invitrogen Corporation), and thermally denatured at 70° C. for 10 min. An equivalent amount of a sample was electrophoresed in 4-12% NuPAGE Bis Tris gel in MES buffer (Invitrogen Corporation) at 200 V for 35 min, and blotted on a PVDF membrane (Nihon Millipore K.K.) at 100 V for 60 min using Trans Blot Mini Cell (Bio-Rad Laboratories, Inc.). The membrane was blocked with TTBS (Bio-Rad Laboratories, Inc.) containing 5% skim-milk (Bio-Rad Laboratories, Inc.) at room temperature for 30 min, and reacted overnight at 4° C. with lactoferrin antibody (manufactured in rabbit, Sigma-Aldrich Co.) diluted 1000-fold. After washing the membrane with TTBS, the membrane was reacted at room temperature for 60 min with secondary antibody of anti-rabbit HRP, which was diluted 5000-fold. Then detection using ECL plus (GE healthcare) was performed. In addition, the amount of the secreted lactoferrin was quantified by forming an analytical curve of human lactoferrin on the same membrane, and comparing the density of the bands.

Row | Sequence | cell adhesion rate (%) [1] [%] | cell adhesion rate (%) [2] [%] | lactoferrin secretion amount (ng/10^5 cells) [3] [ng/10^5 cells] | promotion of secretion of lactoferrin (in words) ([3]; 10 min)
1 | EISGPAEPASPPETTTTAQETSAAAVQGTAKVT (listed as Homo sapiens) [polypeptide 4, reference compound] | 107 | 100 | 2.79 | –
2 | EISGPAEPASPPETTTTAQETSAAAVQGTAKVTSSRQELNPLKSIVEKSILLTEQALAKA (listed as Homo sapiens) [polypeptide 7] | 190 | – | – | –
3 | QGTAKVTSSRQELNPL (listed as Homo sapiens) [polypeptide 5, reference compound] | – | 98 | – | –
4 | QGTAKVTSSRQELNPLKSIVEKSILLTEQALAKA (listed as Homo sapiens) [polypeptide 6] | 160 | – | – | –
5 | QGTAKVTSSRQELNPLKSIVEKSILLTEQALAKAGKGMHGGVPGG (listed as Homo sapiens) [polypeptide 2] | – | 134 | – | –
6 | QGTAKVTSSRQELNPLKSIVEKSILLTEQALAKAGKGMHGGVPGGKQFIENGSEF (listed as Homo sapiens) [polypeptide 3] | – | 147 | – | –
7 | VQGTAKVTSSRQELNPLKSIVEKSILLTEQALAKA (listed as Homo sapiens) [polypeptide 1] | – | 147 | 11.7 | promoted the secretion of lactoferrin
